Legend:
HPK1 protein [1] = molecular target: T1, HPK1 protein (Homo sapiens, UniProt Q92918); assay: HPK1 enzyme inhibition assay (ADP-Glo); assay type: biochemical; details: MBP substrate, ATP, ADP-Glo readout
T1 construct: purchased Signal Chem M23-11G-10
T1 sequence (Q92918 1-346 limits assumed): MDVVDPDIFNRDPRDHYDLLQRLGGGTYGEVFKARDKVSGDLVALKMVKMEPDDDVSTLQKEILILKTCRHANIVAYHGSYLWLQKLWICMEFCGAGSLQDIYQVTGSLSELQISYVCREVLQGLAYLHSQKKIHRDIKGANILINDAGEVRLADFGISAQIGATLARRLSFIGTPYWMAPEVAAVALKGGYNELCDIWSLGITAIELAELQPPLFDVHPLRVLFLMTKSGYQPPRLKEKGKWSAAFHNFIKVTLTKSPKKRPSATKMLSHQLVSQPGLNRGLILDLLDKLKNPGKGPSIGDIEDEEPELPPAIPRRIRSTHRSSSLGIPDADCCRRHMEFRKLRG
Procedure: The compound was dissolved in 100% DMSO at the concentration of 10 mM. The HPK1 protein was purchased from Signal Chem (M23-11G-10). 2.5 μL per well of 2×HPK1 protein was added to assay plate containing the test compound, centrifuged at 1500 rpm for 1 minute, and then incubated at 25° C. for 60 minutes. MBP protein was purchased from Signal Chem (M42-51N) and ATP was purchased from Promega (V9102). The two were added 2.5 μL per well mixture of 2×MBP (0.2 ug/ul) and ATP (20 μM), centrifuged at 1500 rpm for 1 minute, then incubated at 25° C. for 60 minutes. Then added 5 μL of ADP-Glo from Promega (V9102) to the assay plate and depleted the unconsumed ATP for 60 minutes. Then centrifuged at 1500 rpm for 1 minute and incubated at 25° C. for 60 minutes. Finally, 10 μL of the kinase assay reagent from Promega (V9102) was added to the assay plate to convert ADP to ATP, centrifuged at 1500 rpm for 1 minute, incubate at 25° C. for 40 minutes. After 40 minutes incubation, the […] was determined. Based on the results, the IC50 value of the compound was calculated.

HPK1 protein [2] = molecular target: T2, HPK1 protein (Mus musculus, UniProt P70218); assay: HPK1 protein degradation in mouse pan T cell (western blot); assay type: cell-based; details: 18 h incubation
T2 construct: the CD3+ T cell population was isolated from spleenocytes of mice; endogenous in cells; host or cells: primary mouse splenic CD3+ (pan) T cells
T2 sequence (P70218 1-827): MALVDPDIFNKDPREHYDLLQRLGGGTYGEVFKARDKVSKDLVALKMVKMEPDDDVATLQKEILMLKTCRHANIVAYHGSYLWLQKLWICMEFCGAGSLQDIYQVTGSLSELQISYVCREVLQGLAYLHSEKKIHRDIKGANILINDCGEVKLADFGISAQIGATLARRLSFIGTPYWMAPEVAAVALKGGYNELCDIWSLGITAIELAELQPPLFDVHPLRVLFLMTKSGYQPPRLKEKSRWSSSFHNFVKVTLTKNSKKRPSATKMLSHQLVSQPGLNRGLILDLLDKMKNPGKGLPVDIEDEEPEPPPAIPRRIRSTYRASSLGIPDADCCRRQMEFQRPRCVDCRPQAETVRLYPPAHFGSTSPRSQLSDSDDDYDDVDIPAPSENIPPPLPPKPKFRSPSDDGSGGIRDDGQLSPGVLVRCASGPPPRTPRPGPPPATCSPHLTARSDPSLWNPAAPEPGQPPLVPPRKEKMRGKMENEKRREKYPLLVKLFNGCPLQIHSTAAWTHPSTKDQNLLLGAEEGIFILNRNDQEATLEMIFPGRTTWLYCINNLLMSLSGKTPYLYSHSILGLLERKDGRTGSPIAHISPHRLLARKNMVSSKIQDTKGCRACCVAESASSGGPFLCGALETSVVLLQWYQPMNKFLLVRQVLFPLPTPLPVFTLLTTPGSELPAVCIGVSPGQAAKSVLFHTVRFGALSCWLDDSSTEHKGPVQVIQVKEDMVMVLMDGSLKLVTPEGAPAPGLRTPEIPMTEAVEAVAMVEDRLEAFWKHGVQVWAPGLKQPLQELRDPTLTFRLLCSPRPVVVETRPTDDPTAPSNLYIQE
Procedure: HPK1 protein degradation in mouse pan T cell: the CD3+ T cell population was isolated from spleenocytes of mice by using Pan T cell isolation kit from Miltenyi Biotec (130-095-130) following manufacture's instruction. The isolated T cells were then incubated with a variety of concentrations of compound. After incubation for 18 h, the cells were collected and lysed. The protein concentration was determined by BCA protein assay kit from Thermo (23227). The HPK1 protein level was determined by western blots, using anti-human HPK1 polyclonal antibody from CST (4472). Proteins were loaded into each well of the pre-casting gels and subjected to electrophoretic separation by SDS-PAGE. The protein resolved by SDS-PAGE were transferred to PVDF, blocked by 5% skim milk and probed with anti-human HPK1 antibody or β-actin antibody from CST (3700S), using following standard western blotting procedure.

IC50 (HPK1 protein [1])	Dmax (HPK1 protein [2])	Compound
0.01 to 0.1 µM	95%	O=C1CCC(N2Cc3cc(N4CCC(CCN5CCN(c6cccc(-c7cnc8[nH]cc(C9CC9)c8c7Cl)c6)C(=O)C5)CC4)c(F)cc3C2=O)C(=O)N1 (stereo not shown) [Example 62, 3-(5-(4-(2-(4-(3-(4-chloro-3-cyclopropyl-1H-pyrrolo[2,3-b]pyridin-5-yl)phenyl)-3-oxopiperazin-1-yl)ethyl)piperidin-1-yl)-6-fluoro-1-oxoisoindolin-2-yl)piperidine-2,6-dione]
0.1 to 1 µM	50%	O=C1CCC(N2Cc3cc(F)c(N4CCC(CCN5CCN(c6cccc(-c7cnc8[nH]cc(C9CC9)c8c7Cl)c6)C(=O)C5)CC4)cc3C2=O)C(=O)N1 (stereo not shown) [Example 61]
0.01 to 0.1 µM	60%	CCc1c[nH]c2ncc(-c3cccc(N4CCN(CCOCCN5CCN(c6cc7c(cc6F)C(=O)N(C6CCC(=O)NC6=O)C7=O)CC5)CC4=O)c3)c(Cl)c12 (stereo not shown) [Example 33]
0.01 to 0.1 µM	60%	CCc1c[nH]c2ncc(-c3cccc(N4CCN(CCCCNc5ccc6c(c5)C(=O)N(C5CCC(=O)NC5=O)C6=O)CC4=O)c3)c(Cl)c12 (stereo not shown) [Example 59]
≤ 0.01 µM	–	O=C1CCN(c2cnc3cc(C4CCN(CCCN5CCN(c6cccc(-c7cnc8[nH]cc(C9CC9)c8c7Cl)c6)C(=O)C5)CC4)ccn23)C(=O)N1 [Example 96, 1-(7-(1-(3-(4-(3-(4-chloro-3-cyclopropyl-1H-pyrrolo[2,3-b]pyridin-5-yl)phenyl)-3-oxopiperazin-1-yl)propyl)piperidin-4-yl)imidazo[1,2-a]pyridin-3-yl)dihydro pyrimidine-2,4 (1H,3H)-dione]
≤ 0.01 µM	–	CCc1c[nH]c2ncc(-c3cccc(N4CCN(CCc5ccc6c(c5)C(=O)N(C5CCC(=O)NC5=O)C6=O)CC4=O)c3)c(Cl)c12 (stereo not shown) [Example 97, 5-(2-(4-(3-(4-chloro-3-ethyl-1H-pyrrolo[2,3-b]pyridin-5-yl)phenyl)-3-oxopiperazin-1-yl)ethyl)-2-(2,6-dioxopiperidin-3-yl)isoindoline-1,3-dione]
0.1 to 1 µM	0%	O=C1CCC(N2Cc3cc(N4CCC(OCC(=O)N5CCN(c6cccc(-c7cnc8[nH]cc(C#Cc9ccccn9)c8c7Cl)c6)C(=O)C5)CC4)ccc3C2=O)C(=O)N1 (stereo not shown) [Example 57, 3-(5-(4-(2-(4-(3-(4-chloro-3-(pyridin-2-ylethynyl)-1H-pyrrolo[2,3-b]pyridin-5-yl)phenyl)-3-oxopiperazin-1-yl)-2-oxoethoxy)piperidin-1-yl)-1-oxoisoindolin-2-yl)piperidine-2,6-dione]
0.01 to 0.1 µM	–	CCc1c[nH]c2ncc(-c3cccc(N4CCN(C(=O)CCCCCCCOc5ccc6c(c5)C(=O)N(C5CCC(=O)NC5=O)C6)CC4=O)c3)c(Cl)c12 (stereo not shown) [Example 65, 3-(6-((8-(4-(3-(4-chloro-3-ethyl-1H-pyrrolo[2,3-b]pyridin-5-yl)phenyl)-3-oxopiperazin-1-yl)-8-oxooctyl)oxy)-1-oxoisoindolin-2-yl)piperidine-2,6-dione]
≤ 0.01 µM	–	CCc1c[nH]c2ncc(-c3cccc(N4CCN(C(=O)COc5ccc6c(c5)C(=O)N(C5CCC(=O)NC5=O)C6)CC4=O)c3)c(Cl)c12 (stereo not shown) [Example 66]

Further lines, the compound ahead of its results:

Compound	IC50 (HPK1 protein [1])	Dmax (HPK1 protein [2])
O=C1CCC(c2ccc(N3CCN(CCCN4CCN(c5cccc(-c6cnc7[nH]cc(C8CC8)c7c6Cl)c5)C(=O)C4)CC3)cc2)C(=O)N1 (stereo not shown) [Example 75, 3-(4-(4-(3-(4-(3-(4-chloro-3-cyclopropyl-1H-pyrrolo[2,3-b]pyridin-5-yl)phenyl)-3-oxopiperazin-1-yl)propyl)piperazin-1-yl)phenyl)piperidine-2,6-dione]	≤ 0.01 µM	55%
CCc1c[nH]c2ncc(-c3cccc(N4CCN(CCC(=O)N5CCN(c6ccc7c(c6)C(=O)N(C6CCC(=O)NC6=O)C7=O)CC5)CC4=O)c3)c(Cl)c12 (stereo not shown) [Example 24]	0.01 to 0.1 µM	91%
CCc1c[nH]c2ncc(-c3cccc(N4CCN(C(=O)CCCCCCCOc5cccc6c5CN(C5CCC(=O)N(C)C5=O)C6=O)CC4=O)c3)c(Cl)c12 (stereo not shown) [Example 2, 3-(4-((8-(4-(3-(4-chloro-3-ethyl-1H-pyrrolo[2,3-b]pyridin-5-yl)phenyl)-3-oxopiperazin-1-yl)-8-oxooctyl)oxy)-1-oxoisoindolin-2-yl)-1-methylpiperidine-2,6-dione]	0.1 to 1 µM	–
CCc1c[nH]c2ncc(-c3cccc(N4CCN(C(=O)CCCCCN(C)c5cccc6c5CN(C5CCC(=O)NC5=O)C6=O)CC4=O)c3)c(Cl)c12 (stereo not shown) [Example 14, 3-(4-((6-(4-(3-(4-chloro-3-ethyl-1H-pyrrolo[2,3-b]pyridin-5-yl)phenyl)-3-oxopiperazin-1-yl)-6-oxohexyl)(methyl)amino)-1-oxoisoindolin-2-yl)piperidine-2,6-dione]	0.01 to 0.1 µM	–
CCc1c[nH]c2ncc(-c3cccc(N4CCN(C(=O)CCCOc5cccc6c5CN(C5CCC(=O)NC5=O)C6=O)CC4=O)c3)c(Cl)c12 (stereo not shown) [Example 4, 3-(4-(4-(4-(3-(4-chloro-3-ethyl-1H-pyrrolo[2,3-b]pyridin-5-yl)phenyl)-3-oxopiperazin-1-yl)-4-oxobutoxy)-1-oxoisoindolin-2-yl)piperidine-2,6-dione]	0.01 to 0.1 µM	–
CCc1c[nH]c2ncc(-c3cccc(N4CCN(CCCN5CCN(c6ccc7c(c6)C(=O)N(C6CCC(=O)NC6=O)C7=O)CC5)CC4=O)c3)c(Cl)c12 (stereo not shown) [Example 27]	0.01 to 0.1 µM	95%
CCc1c[nH]c2ncc(-c3cccc(N4CCN(CC(=O)N5CCN(c6cc7c(cc6F)C(=O)N(C6CCC(=O)NC6=O)C7=O)CC5)CC4=O)c3)c(Cl)c12 (stereo not shown) [Example 29, 5-(4-(2-(4-(3-(4-chloro-3-ethyl-1H-pyrrolo[2,3-b]pyridin-5-yl)phenyl)-3-oxopiperazin-1-yl)acetyl)piperazin-1-yl)-2-(2,6-dioxopiperidin-3-yl)-6-fluoroisoindoline-1,3-dione]	0.01 to 0.1 µM	80%
CCc1c[nH]c2ncc(-c3cccc(N4CCN(C(=O)COc5cccc6c5CN(C5CCC(=O)NC5=O)C6=O)CC4=O)c3)c(Cl)c12 (stereo not shown) [Example 3]	≤ 0.01 µM	–
CCc1c[nH]c2ncc(-c3cccc(N4CCN(C(=O)COC5CCN(c6cccc7c6C(=O)N(C6CCC(=O)NC6=O)C7=O)CC5)CC4=O)c3)c(Cl)c12 (stereo not shown) [Example 17, 4-(4-(2-(4-(3-(4-chloro-3-ethyl-1H-pyrrolo[2,3-b]pyridin-5-yl)phenyl)-3-oxopiperazin-1-yl)-2-oxoethoxy)piperidin-1-yl)-2-(2,6-dioxopiperidin-3-yl)isoindoline-1,3-dione]	0.1 to 1 µM	–
CCc1c[nH]c2ncc(-c3cccc(N4CCN(C(=O)CCCCCNc5ccc6c(c5)C(=O)N(C5CCC(=O)NC5=O)C6=O)CC4=O)c3)c(Cl)c12 (stereo not shown) [Example 19, 5-((6-(4-(3-(4-chloro-3-ethyl-1H-pyrrolo[2,3-b]pyridin-5-yl)phenyl)-3-oxopiperazin-1-yl)-6-oxohexyl)amino)-2-(2,6-dioxopiperidin-3-yl)isoindoline-1,3-dione]	0.01 to 0.1 µM	–
